Measurements from ChEMBL document CHEMBL3739325, “Design of pyrazolo-pyrimidines as 11-HSD1 inhibitors through optimisation of molecular electrostatic potential” (Medchemcomm, 2015).

How the values were obtained:
[1] = Lipophilicity, log D of the compound in octanol at pH 7.4; assay type: physicochemical
[2] = test system: human transporter (not named); test: Apparent permeability of the compound in MDCK cells expressing human transporter […]; assay type: ADME, cell-based, Canis lupus familiaris; details: dog
[3] = Ratio of total drug uptake in brain to blood in Han Wistar rat after 1 hr; assay type: ADME, tissue-based; details: brain and blood, read-out: BBR

CO[C@]12CC3CC(C1)[C@@H](NC(=O)c1cnn4cc(C)cnc14)C(C3)C2
logD [1]: 2.6 | Papp [2]: 49 ×10⁻⁶ cm/s

N#C[C@]12CC3CC(C1)[C@@H](NC(=O)c1cnn4cc(Cl)cnc14)C(C3)C2
logD [1]: 2.5 | Papp [2]: 41 ×10⁻⁶ cm/s | Kp at 1 h [3]: 0.6

O=C(N[C@H]1C2CC3CC1C[C@](O)(C3)C2)c1cnn2cccnc12
logD [1]: 1.4

Cc1cc(C)n2ncc(C(=O)N[C@H]3C4CC5CC3C[C@](O)(C5)C4)c2n1
logD [1]: 2

O=C(NC1C2CC3CC(C2)CC1C3)c1cnn2cccnc12 (stereo not given)
logD [1]: 3.5

COCc1cc(C)n2ncc(C(=O)N[C@H]3C4CC5CC3C[C@](O)(C5)C4)c2n1
logD [1]: 1.8

Cc1ccnc2c(C(=O)N[C@H]3C4CC5CC3C[C@](O)(C5)C4)cnn12
logD [1]: 2 | Kp at 1 h [3]: 0.3

O=C(N[C@H]1C2CC3CC1C[C@](O)(C3)C2)c1cnn2c(C(F)(F)F)ccnc12
logD [1]: 2

COc1cnc2c(C(=O)N[C@H]3C4CC5CC3C[C@](O)(C5)C4)cnn2c1
logD [1]: 1.8

Cc1cnc2c(C(=O)N[C@H]3C4CC5CC3C[C@](O)(C5)C4)cnn2c1
logD [1]: 1.7 | Papp [2]: 29 ×10⁻⁶ cm/s | Kp at 1 h [3]: 0.3

Cc1ccnc2c(C(=O)N[C@H]3C4CC5CC3C[C@](C#N)(C5)C4)cnn12
logD [1]: 2.4

Cc1cc(C(F)(F)F)n2ncc(C(=O)N[C@H]3C4CC5CC3C[C@](O)(C5)C4)c2n1
logD [1]: 2.3

O=C(N[C@H]1C2CC3CC1C[C@](O)(C3)C2)c1cnn2cc(Cl)cnc12
logD [1]: 1.8 | Papp [2]: 44 ×10⁻⁶ cm/s | Kp at 1 h [3]: 0.3

O=C(N[C@H]1C2CC3CC1C[C@](O)(C3)C2)c1cnc2cccnn12
logD [1]: 1.2

COCc1cc(C)nc2c(C(=O)N[C@H]3C4CC5CC3C[C@](C#N)(C5)C4)cnn12
logD [1]: 2.7

Cc1ccn2ncc(C(=O)N[C@H]3C4CC5CC3C[C@](O)(C5)C4)c2n1
logD [1]: 1.9

Cc1cc(C)n2ncc(C(=O)N[C@H]3C4CC5CC3C[C@](C#N)(C5)C4)c2n1
logD [1]: 2.9

O=C(N[C@H]1C2CC3CC1C[C@](O)(C3)C2)c1cnn2ccccc12
logD [1]: 1.5

Cc1cc(C(F)F)n2ncc(C(=O)N[C@H]3C4CC5CC3C[C@](O)(C5)C4)c2n1
logD [1]: 2.2

COCc1cc(C)nc2c(C(=O)N[C@H]3C4CC5CC3C[C@](O)(C5)C4)cnn12
logD [1]: 2.1

Cc1cnc2c(C(=O)N[C@H]3C4CC5CC3C[C@](C#N)(C5)C4)cnn2c1
logD [1]: 2.3 | Papp [2]: 46 ×10⁻⁶ cm/s | Kp at 1 h [3]: 1.6

O=C(N[C@H]1C2CC3CC1C[C@](O)(C3)C2)c1cnn2c(C(F)F)cc(C3CC3)nc12
logD [1]: 2.8

N#Cc1cnc2c(C(=O)N[C@H]3C4CC5CC3C[C@](O)(C5)C4)cnn2c1
logD [1]: 0.6

COCc1cc(C)n2ncc(C(=O)N[C@H]3C4CC5CC3C[C@](C#N)(C5)C4)c2n1
logD [1]: 2.4

N#C[C@]12CC3CC(C1)[C@@H](NC(=O)c1cnn4cc(CCO)cnc14)C(C3)C2
logD [1]: 1.6
